Source: US9434764B2, “Skin care compositions and methods comprising selective agonists of melanocortin 1 receptor” (University of Cincinnati, priority 2012, dated 2016)
“Also recorded” adds a separate entry of the source. One block for each compound: values may come before it.

Assays:
tyrosinase activity = assay: Stimulation of tyrosinase activity in cultured human melanocytes; assay type: cell-based; conditions: for TA (tyrosinase activity) compared to 10 nM αMSH: cultured human melanocytes; for effect on tyrosinase activity compared to another peptide / concentration at which significant stimulation of tyrosinase activity begins: 6-day treatment; for effect on tyrosinase activity compared to another peptide: in words
Method: Peptides were tested on cultured human melanocytes for their capacity for stimulating tyrosinase activity, the rate-limiting enzyme for melanin synthesis. Melanocytes were treated every other day, for a total of 6 days, with increasing concentrations of peptides. Medium containing H^3-tyrosine, the substrate for tyrosinase, was added to melanocytes 24 hours before the end of the 6-day treatment. Tyrosinase activity was measured by determining the amount of ^3H2O generated as […] is catalyzed by tyrosinase for melanin synthesis.
(§1) Peptides were tested as described in Example 4 above on cultured human melanocytes for their capacity to activate MC1R, as measured by stimulating cAMP formation, and for their capacity for stimulating tyrosinase activity, the rate-limiting enzyme for melanin synthesis. The tested peptides were synthesized according to the formula: Ar(CH2)mX^1—X^2—CO—X^3—X^4—X^5-(Trp)n-NX^6R wherein X^1 and X^2 are absent, X^3 is His, X^5 is Arg, and X^6 is H. X^4 amino acids were in the D-stereoisomer form, unless otherwise noted.

hMC3R = molecular target: T1, hMC3R (Homo sapiens, UniProt P41968); assay: cAMP stimulation in heterologous cells expressing human MC3R; assay type: cell-based; conditions: for EC50: cAMP, heterologous cells; for binding of MC3R: in words
T1 construct: expressed in transfected cells
Method: (§2) Receptor selectivity of peptide agonists for hMC1R was determined by stimulation of cAMP in heterologous cells expressing different human melanocortin receptors (MC1R, MC3R, MC4R, and MC5R).

hMC5R = molecular target: T2, hMC5R (Homo sapiens, UniProt P33032); assay: cAMP stimulation in heterologous cells expressing human MC5R; assay type: cell-based; conditions: for EC50: cAMP, heterologous cells; for binding of MC5R: in words
T2 construct: expressed in transfected cells
Method: as §2

[1] = system: UV-irradiated human melanocytes; assay: Repair of UV-induced cyclobutane pyrimidine dimers (CPD) in human melanocytes; assay type: cell-based; conditions: for CPD removal at 1 nM compared to 10 nM α-MSH: 1 nM peptide, 48 hours post UV
Method: To investigate the effects of peptides on the repair of UV-induced DNA damage, levels of cyclobutane pyrimidine dimers (CPD), the major form of DNA photoproducts, were measured in UV-irradiated human melanocytes with or without peptide treatment. Melanocytes were pretreated with the peptides for 4 days prior to, and for 48 hours post UV exposure, harvested, immunostained by a specific antibody for CPD, and analyzed by flow cytometry.

MC1R [2] = molecular target: T3, MC1R (Homo sapiens, UniProt Q01726); assay: cAMP stimulation in heterologous cells expressing human MC1R; assay type: cell-based; parameters: expressed in transfected cells; conditions: for EC50: cAMP, heterologous cells; for potency in activation of MC1R compared to MT-II: in words
Method: as §2

MC1R [3] = molecular target: T3, MC1R; assay: Stimulation of cAMP formation in cultured human melanocytes; assay type: cell-based; parameters: MC1R is expressed on the cell surface of melanocytes; endogenous in cells; host or cells: cultured human melanocytes; conditions: for potency in stimulating cAMP formation compared to another peptide: in words; for cAMP compared to 10 nM αMSH: cultured human melanocytes
Method: Peptides were tested on cultured human melanocytes for their capacity to activate MC1R, as measured by stimulating cAMP formation. After 45 minutes of treatment with different concentrations of peptides, cAMP levels were measured using a I^125-labeled radioimmunoassay kit.
as §1

human melanocytes = assay: Potency in human melanocytes; assay type: cell-based; conditions: in words
Excerpt: Satyanarayanajois S. D., et al., Conformations of end-capped melanocortin agonists RCO-X-Z-Arg-Trp-NH2 by 2D-NMR, CD and computations, Peptides Breaking Away: Proceedings of the Twenty-First American Peptide Association 384 (2009). […] Ruwe A. R. et al., Semi-rigid tripeptide agonists of melanocortin receptors, Bioorg. Med. Chem. Lett. 19(17): 5176-81 (2009). […] Thus, while not desiring to be bound by theory, it is believed that the conformational restraints favorable for longer peptides may be unfavorable for shorter MC1R agonists, including the Formula I and Formula II peptides disclosed herein.

mouse MCRs = conditions: in words; cited from earlier work
hMC4R = molecular target: T4, hMC4R (Homo sapiens, UniProt P32245); assay: cAMP stimulation in heterologous cells expressing human MC4R; assay type: cell-based; conditions: for EC50: cAMP, heterologous cells
T4 construct: expressed in transfected cells
Method: as §2

[4] = system: UV-irradiated human melanocytes; assay: Repair of UV-induced 8-oxodG in human melanocytes; assay type: cell-based
Method: To investigate the effects of peptides on repair of UV-induced DNA damage, levels of 8-oxodG, a major form of oxidative DNA damage, were measured in UV-irradiated human melanocytes with or without peptide treatment. […] Fluorescence intensity, which correlates with the amount of DNA damage, was quantified using ImagJ software.

[5] = Peptide storage stability by HPLC; assay type: physicochemical; conditions: lyophilized, open air, room temperature, 4 months
Method: LK-513 (Ph(CH2)3CO-His-(D-4-Bip)-Arg-NHMe) was tested for stability and degradation over a storage period. The peptide was stored in a lyophilized form in open air at room temperature for 4 months. After 4 months, HPLC was performed on a test sample of the peptide in order to measure degradation, using standard methods (FIG. 1). […] Without being bound by theory, it is believed that the enhanced stability is a product of the absence of amide bonds between natural L-L-amino acids in the tripeptides and the existence of only one amide bond between natural amino acids in the tetrapeptides (Arg-Trp). Amide bonds between non-natural D- and natural L-amino acids are less prone to chemical and enzymatic hydrolysis, as evidenced by the FIG. 1. Further, the bulk and hydrophobicity of the X4 amino acid (D-Phe or a bulky hydrophobic analog thereof, such as D-4-Bip in the case of LK-513) shield the polar amid bonds of the peptide from chemical and enzymatic degradation.

T1 sequence (P41968 whole entry): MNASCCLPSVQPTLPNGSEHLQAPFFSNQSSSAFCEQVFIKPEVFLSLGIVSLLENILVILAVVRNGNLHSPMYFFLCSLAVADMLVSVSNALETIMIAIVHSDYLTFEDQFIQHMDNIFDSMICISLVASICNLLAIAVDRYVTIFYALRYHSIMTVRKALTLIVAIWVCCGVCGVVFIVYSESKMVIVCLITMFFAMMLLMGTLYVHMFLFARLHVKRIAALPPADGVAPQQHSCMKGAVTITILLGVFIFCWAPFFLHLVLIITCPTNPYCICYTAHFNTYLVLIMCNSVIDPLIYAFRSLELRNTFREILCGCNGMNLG
T2 sequence (P33032 whole entry): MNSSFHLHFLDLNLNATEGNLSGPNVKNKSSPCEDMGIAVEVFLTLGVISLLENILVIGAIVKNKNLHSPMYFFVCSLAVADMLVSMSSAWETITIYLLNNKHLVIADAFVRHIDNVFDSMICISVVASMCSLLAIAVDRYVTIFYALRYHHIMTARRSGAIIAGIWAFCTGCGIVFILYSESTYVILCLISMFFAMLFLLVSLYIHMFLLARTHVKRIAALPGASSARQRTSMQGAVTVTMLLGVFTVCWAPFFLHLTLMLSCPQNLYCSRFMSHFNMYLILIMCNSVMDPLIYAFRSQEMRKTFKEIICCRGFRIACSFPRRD
T4 sequence (P32245 whole entry): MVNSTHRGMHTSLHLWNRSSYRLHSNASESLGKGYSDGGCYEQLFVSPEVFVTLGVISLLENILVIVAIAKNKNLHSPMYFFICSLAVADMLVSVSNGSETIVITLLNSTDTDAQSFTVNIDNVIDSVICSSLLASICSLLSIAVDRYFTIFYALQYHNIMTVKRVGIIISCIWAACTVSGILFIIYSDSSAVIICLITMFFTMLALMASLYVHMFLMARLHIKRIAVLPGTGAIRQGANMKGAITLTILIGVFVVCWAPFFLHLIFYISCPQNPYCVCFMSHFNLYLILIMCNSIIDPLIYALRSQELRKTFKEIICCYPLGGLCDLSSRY
T3 sequence (Q01726 whole entry): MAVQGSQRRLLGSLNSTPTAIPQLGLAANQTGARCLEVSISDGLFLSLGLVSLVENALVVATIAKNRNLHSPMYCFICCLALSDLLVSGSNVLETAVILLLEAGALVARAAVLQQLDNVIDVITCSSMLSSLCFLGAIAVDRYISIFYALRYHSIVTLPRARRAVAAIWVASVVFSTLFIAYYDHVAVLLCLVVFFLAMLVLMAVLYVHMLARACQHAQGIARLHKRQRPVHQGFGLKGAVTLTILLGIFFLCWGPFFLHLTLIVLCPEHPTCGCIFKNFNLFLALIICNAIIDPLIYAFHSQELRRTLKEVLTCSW

- EC50 (hMC3R): 0.0227 µM
- EC50 (hMC5R): 0.262 µM
- EC50 (MC1R [2]): 0.00019 µM
- concentration giving maximal cAMP (MC1R [3]; human melanocytes, 45 minutes of treatment): 10 nM
Compound: N=C(N)NCCC[C@H](NC(=O)[C@@H](Cc1ccccc1)NC(=O)[C@H](Cc1c[nH]cn1)NC(=O)CCCc1ccccc1)C(=O)N[C@@H](Cc1c[nH]c2ccccc12)C(N)=O [LK-184, Ph(CH2)3CO-His-(D-Phe)-Arg-Trp-NH2]
- effect on tyrosinase activity compared to another peptide (tyrosinase activity; human melanocytes): comparable effects in tyrosinase activity
- CPD removal at 1 nM compared to 10 nM α-MSH [1]: same effect at 1 nM on CPD removal as 10 nM α-MSH

- EC50 (hMC3R): 0.0324 µM
- EC50 (hMC4R): 0.0181 µM
- potency at hMC4R compared to LK-184 (hMC4R; in words): about ten times less potent
- EC50 (hMC5R): 0.122 µM
- potency compared to α-MSH in activating MC1R and stimulating melanogenesis (tyrosinase activity; human melanocytes, tyrosinase activity): at least 100 times
- EC50 (MC1R [2]): 0.00034 µM
- potency in stimulating cAMP formation compared to another peptide (MC1R [3]; human melanocytes): more potent than LK-184
Compound: N=C(N)NCCC[C@H](NC(=O)[C@@H](Cc1cccc2ccccc12)NC(=O)[C@H](Cc1c[nH]cn1)NC(=O)CCCc1ccccc1)C(=O)N[C@@H](Cc1c[nH]c2ccccc12)C(N)=O [LK-467, Ph(CH2)3CO-His-(D-1-Nal)-Arg-Trp-NH2]
- effect on tyrosinase activity compared to another peptide (tyrosinase activity; human melanocytes): comparable effects in tyrosinase activity
- CPD removal at 1 nM compared to 10 nM α-MSH [1]: same effect at 1 nM on CPD removal as 10 nM α-MSH
- reduction of CPD levels compared to LK-184 ([1]; 48 hours after UV exposure): as effective as LK-184
- reduction of 8-oxodG levels compared to LK-184 ([4]; 24 hours after UV exposure): as effective as LK-184

- EC50 (hMC3R): > 10 µM
- binding of MC3R (hMC3R): do not bind
- EC50 (hMC4R): > 10 µM
- binding of MC4R (hMC4R; in words): do not bind
- EC50 (hMC5R): > 10 µM
- binding of MC5R (hMC5R): do not bind
- TA (tyrosinase activity) compared to 10 nM αMSH (tyrosinase activity): <
- concentration at which significant stimulation of tyrosinase activity begins (tyrosinase activity; human melanocytes): 1 nM
- EC50 (MC1R [2]): 0.00327 µM
- potency in activation of MC1R compared to MT-II (MC1R [2]): about as potent as MT-II
- potency in stimulating cAMP formation compared to another peptide (MC1R [3]; human melanocytes): about ten times less potent than α-MSH
Compound: CNC(=O)[C@H](CCCNC(=N)N)NC(=O)[C@@H](Cc1ccc(-c2ccccc2)cc1)NC(=O)[C@H](Cc1c[nH]cn1)NC(=O)CCCc1ccccc1 [LK-513, Ph(CH2)3CO-His-(D-4-Bip)-Arg-NHMe]
- stability and degradation by HPLC [5]: highly stable and resistant to degradation, showing only a single HPLC peak; also recorded: highly stable and substantially free of degradation

- effect on tyrosinase activity compared to another peptide (tyrosinase activity; human melanocytes): equipotent to LK-467
- potency in stimulating cAMP formation compared to another peptide (MC1R [3]; human melanocytes): equipotent to LK-467
Compound: Ph(CH2)3CO-His-(D-Phe)-Arg-Trp-NHEt [LK-487]

- EC50 (hMC3R): > 10 µM
- binding of MC3R (hMC3R): do not bind
- EC50 (hMC4R): > 10 µM
- binding of MC4R (hMC4R; in words): do not bind
- EC50 (hMC5R): > 10 µM
- binding of MC5R (hMC5R): do not bind
- TA (tyrosinase activity) compared to 10 nM αMSH (tyrosinase activity): <
- concentration at which significant stimulation of tyrosinase activity begins (tyrosinase activity; human melanocytes): 1 nM
- EC50 (MC1R [2]): 0.00146 µM
- potency in activation of MC1R compared to MT-II (MC1R [2]): about as potent as MT-II
- potency in stimulating cAMP formation compared to another peptide (MC1R [3]; human melanocytes): about ten times less potent than α-MSH
Compound: N=C(N)NCCC[C@H](NC(=O)[C@@H](Cc1ccc(-c2ccccc2)cc1)NC(=O)[C@H](Cc1c[nH]cn1)NC(=O)CCCc1ccccc1)C(N)=O [LK-511, Ph(CH2)3CO-His-(D-4-Bip)-Arg-NH2]

- EC50 (hMC3R): > 10 µM
- binding of MC3R (hMC3R): do not bind
- EC50 (hMC4R): > 10 µM
- binding of MC4R (hMC4R; in words): do not bind
- EC50 (hMC5R): > 10 µM
- binding of MC5R (hMC5R): do not bind
- TA (tyrosinase activity) compared to 10 nM αMSH (tyrosinase activity): <
- concentration at which significant stimulation of tyrosinase activity begins (tyrosinase activity; human melanocytes): 1 nM
- effect on tyrosinase activity compared to another peptide (tyrosinase activity; human melanocytes): the most effective
- EC50 (MC1R [2]): 0.00365 µM
- potency in activation of MC1R compared to MT-II (MC1R [2]): about as potent as MT-II
Compound: CC(C)(C)c1ccc(C[C@@H](NC(=O)[C@H](Cc2c[nH]cn2)NC(=O)CCCc2ccccc2)C(=O)N[C@@H](CCCNC(=N)N)C(N)=O)cc1 [LK-514, Ph(CH2)3CO-His-(D-4-tBuPhe)-Arg-NH2]
- reduction of 8-oxodG levels at 100 nM compared to 1 nM α-MSH ([4]; 100 nM peptide, 24 hours post UV): greater effect than 1 nM α-MSH
- potency in stimulating cAMP formation compared to another peptide (MC1R [3]; human melanocytes): about ten times less potent than α-MSH; also recorded: more potent than LK-511 or 513; also recorded: more potent than LK-511 or LK-513

The next lines start with the compound.

Compound: Ph(CH2)3CO-His-(D-1-Nal)-Arg-NHMe [LK 512P]
- TA (tyrosinase activity) compared to 10 nM αMSH (tyrosinase activity): NR (NR = No Response/inactive at 10 nM)

Compound: Ph(CH2)3CO-His-(D-2-Nal)-Arg-NHMe [LK 517P]
- TA (tyrosinase activity) compared to 10 nM αMSH (tyrosinase activity): <<<

Compound: trans-4-HOC6H4CH═CHCO-His-D-Phe-Arg-NH2
- potency in human melanocytes (human melanocytes): less potent
- MC1R selectivity and potency at mouse MCRs compared to LK-394 (mouse MCRs): moderately increased MC1R selectivity and potency

Compound: Ph(CH2)3CO-His-(D-1-Nal)-Arg-NH2 [LK 510P]
- TA (tyrosinase activity) compared to 10 nM αMSH (tyrosinase activity): NR (NR = No Response/inactive at 10 nM)

Compound: 3,4-O(CH2)2C6H4CH2CO-His-(D-4-FPhe)-Arg-Trp-NH2 [LK 210P]
- cAMP compared to 10 nM αMSH (MC1R [3]): ≧

Compound: Ph(CH2)3CO-His-(D-4-tBuPhe)-Arg-NHMe [LK 516P]
- TA (tyrosinase activity) compared to 10 nM αMSH (tyrosinase activity): <<

Compound: Ph(CH2)3CO-His-(D-2-Nal)-Arg-Trp-NH2 [LK 468P]
- cAMP compared to 10 nM αMSH (MC1R [3]): ≦

Compound: 4-FC6H4CH2CO-His-(D-4-FPhe)-Arg-Trp-NH2 [LK 205P]
- TA (tyrosinase activity) compared to 10 nM αMSH (tyrosinase activity): ≧
- cAMP compared to 10 nM αMSH (MC1R [3]): ≦

Compound: Ph(CH2)3CO-His-(D-2-Nal)-Arg-NH2 [LK 515P]
- TA (tyrosinase activity) compared to 10 nM αMSH (tyrosinase activity): <<
